{"source": "patent US7267830B2", "about": "“Composition and methods for inhibiting the progression macular degeneration and promoting healthy vision” (Alcon, Inc., priority 2003, dated 2007)", "origin": "cited, not measured here", "key": {"[1]": {"test_system": "macular degeneration changes", "conditions": "zinc supplement, Newsome 1988"}}, "note": "Read-outs that look alike come from different tables or passages of the source."}
{"smiles": "[Zn]", "note": "[Zinc]", "values": [{"measurement": "retarding macular degeneration changes versus placebo", "setting": "[1]", "value": "significantly better than placebo"}, {"measurement": "tolerability", "setting": "100 mg zinc a day (Wagner 1985)", "value": "well tolerated without difficulty"}, {"measurement": "tolerability", "setting": "150 mg of zinc a day (Wagner 1985)", "value": "well tolerated without difficulty"}, {"measurement": "tolerability", "setting": "about 200 mg of zinc per day", "value": "well-tolerated"}, {"measurement": "potential side effects", "setting": "about 200 mg of zinc per day (Fischer 1983)", "value": "blocking copper absorption"}]}
